The source made the active and inactive calls.
Experiments:
Protein skinhead-1 = biological target: T1, Protein skinhead-1 (Caenorhabditis elegans, UniProt P34707); format: functional
T1 sequence (P34707 whole entry): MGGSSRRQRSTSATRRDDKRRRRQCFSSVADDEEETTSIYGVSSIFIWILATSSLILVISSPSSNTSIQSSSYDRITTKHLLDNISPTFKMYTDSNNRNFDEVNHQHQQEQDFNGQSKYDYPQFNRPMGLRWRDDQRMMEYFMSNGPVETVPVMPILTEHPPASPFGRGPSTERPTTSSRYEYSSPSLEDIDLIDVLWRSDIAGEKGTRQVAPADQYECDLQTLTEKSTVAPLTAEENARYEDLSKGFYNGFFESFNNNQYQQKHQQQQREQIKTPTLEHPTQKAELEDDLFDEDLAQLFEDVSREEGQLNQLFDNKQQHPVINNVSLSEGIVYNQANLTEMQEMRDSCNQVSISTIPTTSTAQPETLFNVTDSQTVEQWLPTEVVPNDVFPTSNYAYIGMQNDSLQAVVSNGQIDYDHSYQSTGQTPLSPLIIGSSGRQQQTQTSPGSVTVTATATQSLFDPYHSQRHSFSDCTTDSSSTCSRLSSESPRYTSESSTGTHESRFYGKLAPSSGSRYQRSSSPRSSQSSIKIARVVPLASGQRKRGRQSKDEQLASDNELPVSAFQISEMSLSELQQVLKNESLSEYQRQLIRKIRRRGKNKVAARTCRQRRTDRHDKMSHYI

[1] = microbe, parasite or virus in culture; format: functional; settings: Mycobacterium tuberculosis
[2] = inhibitors of HIV Env-driven cell fusion, dose response, cherry-pick (AID 652057); format: functional, cell-based
[3] = CEM21 lymphoblast cell cytotoxicity, dose response, cytotoxicity control for viral fusion inhibitor project, CellTiter-Glo luminescence, cherry-picked (AID 652042); format: functional, cell-based;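 further: potency for signal decrease meaning cytotoxicity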
[4] = ZM109 Env clade C HIV-1 fusion inhibitors, dose response, HeLa effector, CEM target cells, luciferase, cherry-pick (AID 652058); format: functional, cell-based
[5] = off-target signal loss in HeLa-CEM21 co-culture – HeLa F-luc CTL cells, cherry-picked, counter-screen for HIV-1 Env fusion inhibitor project, dose response (AID 652040); format: functional, cell-based;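 further: potency for signal decrease marking cytotoxic or nonspecific inhibition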
[6] = inhibitors of clade B AD8 Env fusion, dose response, cell-based, cherry-pick (AID 652062); format: functional;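 further: luciferase signal from cell-cell fusion driven by HIV-1 clade B AD8 Env; potency is for inhibitors of fusion seen as a drop in luminescence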
[7] = biological target: T2, High affinity choline transporter 1 (Homo sapiens, UniProt Q9GZV3); experiment: CHT inhibitors, dose response, cell-based, 5-point CRC, membrane potential dye (AID 504840); format: functional
T2 sequence (Q9GZV3 whole entry): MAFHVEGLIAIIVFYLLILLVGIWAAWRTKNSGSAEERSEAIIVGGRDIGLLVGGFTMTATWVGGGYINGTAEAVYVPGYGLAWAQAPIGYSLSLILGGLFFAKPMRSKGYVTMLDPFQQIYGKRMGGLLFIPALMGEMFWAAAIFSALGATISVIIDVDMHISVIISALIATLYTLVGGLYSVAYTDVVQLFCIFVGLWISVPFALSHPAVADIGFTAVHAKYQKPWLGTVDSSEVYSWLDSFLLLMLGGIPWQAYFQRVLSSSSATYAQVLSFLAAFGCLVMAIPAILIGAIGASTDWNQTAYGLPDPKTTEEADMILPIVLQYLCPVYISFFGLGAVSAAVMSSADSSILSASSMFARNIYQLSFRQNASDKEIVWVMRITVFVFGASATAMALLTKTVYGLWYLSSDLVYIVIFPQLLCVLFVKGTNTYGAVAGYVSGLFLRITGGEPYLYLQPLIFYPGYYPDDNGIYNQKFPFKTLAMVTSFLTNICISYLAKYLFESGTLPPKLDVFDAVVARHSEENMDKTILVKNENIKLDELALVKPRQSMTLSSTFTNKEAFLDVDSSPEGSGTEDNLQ

[8] = biological target: NAD-dependent protein deacylase sirtuin-5, mitochondrial (Homo sapiens, UniProt Q9NXA8); experiment: SIRT5 desuccinylase inhibitors, dose response, biochemical, fluorescence imaging, cherry-pick, set 5 (AID 720591);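 further: desuccinylation of succinyl peptide AMC substrate read as fluorescence after trypsin release; potency of inhibitors that lower fluorescence and may act on trypsin instead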
Mu-type opioid receptor = Mu-type opioid receptor (Homo sapiens, UniProt P35372); format: functional, cell-based;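 further: U2OS cells with beta-arrestin recruitment to OPRM1 by beta-gal complementation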
[9] = biological target: 5-hydroxytryptamine receptor 2A (Mus musculus, UniProt P35363); format: functional, cell-based;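 further: CHO-K1 cells with tagged receptor and beta-arrestin; agonist potency measured as compound-induced activation of the receptor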
[10] = biological target: T3, Long-chain-fatty-acid--AMP ligase FadD28 (Mycobacterium tuberculosis, UniProt P9WQ59); experiment: Fluorescence polarization aasay to screen for inhibitors that compete for the binding of FadD28 to a bisubstrate Measured in Biochemical System Using Plate Reader - 2147-01_Inhibitor_Dose_CherryPick_Activity.; format: functional, Mycobacterium tuberculosis H37Rv
T3 sequence (P9WQ59 whole entry): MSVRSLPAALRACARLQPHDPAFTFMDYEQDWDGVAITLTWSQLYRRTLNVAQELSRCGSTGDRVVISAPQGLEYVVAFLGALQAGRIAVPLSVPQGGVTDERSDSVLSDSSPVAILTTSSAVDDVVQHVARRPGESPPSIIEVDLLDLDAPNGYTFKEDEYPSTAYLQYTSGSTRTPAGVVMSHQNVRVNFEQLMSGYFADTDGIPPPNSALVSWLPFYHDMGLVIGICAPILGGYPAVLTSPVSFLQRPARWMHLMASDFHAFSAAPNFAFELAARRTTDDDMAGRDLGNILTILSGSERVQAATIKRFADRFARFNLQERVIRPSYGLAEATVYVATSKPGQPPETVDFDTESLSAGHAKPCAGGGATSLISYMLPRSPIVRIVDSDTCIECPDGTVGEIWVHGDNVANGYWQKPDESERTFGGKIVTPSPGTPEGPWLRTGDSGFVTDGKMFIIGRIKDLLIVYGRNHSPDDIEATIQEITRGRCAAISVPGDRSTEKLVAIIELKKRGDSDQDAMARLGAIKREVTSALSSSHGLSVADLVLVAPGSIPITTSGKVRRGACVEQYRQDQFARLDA

[11] = P. falciparum Dd2 growth inhibitors, dose response, SYBR Green, cherry-picked samples (AID 1159567); format: functional, cell-based
[12] = system: Streptococcus sp. 'group A'; experiment: growth inhibition of control SK(-) GAS strain, dose response, counter-screen for streptokinase expression inhibitor project, luminescence, kanamycin, BacTiterGlo, confirmation (AID 1900); format: functional, organism-based
Streptokinase A = biological target: T4, Streptokinase A (Streptococcus pyogenes serotype M1, UniProt P10520); experiment: S. pyogenes streptokinase expression inhibitors, potency, dose response, plasminogen activation absorbance, OD405 (AID 1914); format: functional, Streptococcus pyogenes M1 GAS;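 further: secreted streptokinase activity via plasminogen activation per viability signal from cell pellet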
T4 sequence (P10520 whole entry): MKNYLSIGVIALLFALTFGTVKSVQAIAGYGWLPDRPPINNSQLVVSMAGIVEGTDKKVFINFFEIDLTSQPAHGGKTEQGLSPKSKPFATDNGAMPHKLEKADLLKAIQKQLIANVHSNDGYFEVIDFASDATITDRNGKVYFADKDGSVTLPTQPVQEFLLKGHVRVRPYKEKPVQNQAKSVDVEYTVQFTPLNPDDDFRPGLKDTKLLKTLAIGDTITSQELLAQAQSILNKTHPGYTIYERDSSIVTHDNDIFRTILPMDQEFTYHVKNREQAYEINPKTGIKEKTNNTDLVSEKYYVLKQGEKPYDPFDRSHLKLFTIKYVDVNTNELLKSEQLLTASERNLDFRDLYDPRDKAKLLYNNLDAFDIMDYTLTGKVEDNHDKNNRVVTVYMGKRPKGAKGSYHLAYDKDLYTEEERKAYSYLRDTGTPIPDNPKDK

Streptococcus = experiment: Group A Streptococcus viability loss, dose response, counter-screen for streptokinase expression inhibitor project, luminescence, BacTiterGlo (AID 1915); format: functional, organism-based;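 further: potency for reduction of bacterial viability or growth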

Chain of NAD-dependent protein deacylase sirtuin-5, mitochondrial (Q9NXA8 whole entry): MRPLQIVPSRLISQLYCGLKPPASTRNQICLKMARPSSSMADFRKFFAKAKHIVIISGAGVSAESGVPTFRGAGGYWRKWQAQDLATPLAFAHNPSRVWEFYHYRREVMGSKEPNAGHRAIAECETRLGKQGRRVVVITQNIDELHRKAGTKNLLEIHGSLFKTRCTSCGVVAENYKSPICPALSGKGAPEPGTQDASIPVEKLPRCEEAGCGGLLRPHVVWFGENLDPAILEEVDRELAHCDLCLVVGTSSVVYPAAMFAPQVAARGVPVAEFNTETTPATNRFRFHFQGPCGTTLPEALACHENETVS
Chain of Mu-type opioid receptor (P35372 whole entry): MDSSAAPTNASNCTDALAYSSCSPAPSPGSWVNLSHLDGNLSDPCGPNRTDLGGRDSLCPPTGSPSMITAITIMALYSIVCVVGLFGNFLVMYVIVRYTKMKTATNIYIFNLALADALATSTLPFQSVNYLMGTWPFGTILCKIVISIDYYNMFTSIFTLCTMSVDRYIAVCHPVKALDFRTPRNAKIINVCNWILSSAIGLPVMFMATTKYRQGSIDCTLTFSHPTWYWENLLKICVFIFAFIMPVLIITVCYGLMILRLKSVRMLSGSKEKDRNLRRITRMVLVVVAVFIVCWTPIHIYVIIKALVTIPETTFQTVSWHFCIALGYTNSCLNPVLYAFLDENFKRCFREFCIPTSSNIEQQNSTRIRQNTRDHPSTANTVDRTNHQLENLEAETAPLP
Chain of 5-hydroxytryptamine receptor 2A (P35363 whole entry): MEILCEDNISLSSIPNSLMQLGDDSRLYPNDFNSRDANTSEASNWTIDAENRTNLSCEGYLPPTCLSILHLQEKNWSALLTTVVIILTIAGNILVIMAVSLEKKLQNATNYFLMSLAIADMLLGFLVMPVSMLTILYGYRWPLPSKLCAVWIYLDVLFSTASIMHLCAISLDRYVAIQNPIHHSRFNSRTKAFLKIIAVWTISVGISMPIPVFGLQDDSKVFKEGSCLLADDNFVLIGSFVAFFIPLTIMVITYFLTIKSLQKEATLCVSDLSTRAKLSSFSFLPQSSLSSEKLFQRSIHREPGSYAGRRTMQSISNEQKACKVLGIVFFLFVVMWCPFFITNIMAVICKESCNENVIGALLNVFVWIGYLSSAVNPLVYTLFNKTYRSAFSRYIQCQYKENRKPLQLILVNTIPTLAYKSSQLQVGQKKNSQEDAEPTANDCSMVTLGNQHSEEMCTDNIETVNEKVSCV

CC(C)OC(=O)CSc1nnc(SCc2cccc3ccccc23)s1
IC50 (Protein skinhead-1): > 100 µM (inactive)

Cc1[nH]c2ccc(OC(F)(F)F)cc2c1CCNCc1ccc(Cl)cc1
CC50 [1]: 12.6 µM (active)
AC50 [2]: 0.838 µM (active)
AC50 [3]: 9.56 µM (active)
AC50 [4]: 1.24 µM (active)
AC50 [5]: 1.71 µM (active)
AC50 [6]: 5.12 µM (active)

Cc1nn(-c2ccccc2)c2nc(O)cc(C(F)(F)F)c12
IC50 [7]: 7.1 µM (active)
AC50 [8]: > 30 µM (inactive)

Brc1cccc(CN2CCN(c3ncccn3)CC2)c1
EC50 (Mu-type opioid receptor): 92.5 µM (inactive)
EC50 [9]: 0.352 µM (active)

CN(CC(=O)Nc1cccc(Cl)c1)S(=O)(=O)c1ccc2c(c1)n(C)c(=O)c(=O)n2C
AC50 [8]: > 30 µM (inactive)

COc1cccc(NC(=O)CN(C)CC(=O)Nc2ccc3c(c2)CCC3)c1
AC50 [8]: > 30 µM (inactive)

Cc1ccc(C2CC(=O)N3CN(Cc4ccco4)CSC3=C2C#N)cc1 (stereo not given)
AC50 [10]: 82.5 µM (active)

C[C@@H]1CN([C@H](C)CO)S(=O)(=O)c2ccc(C#Cc3ccccc3)cc2O[C@H]1CN(C)C(=O)C1CC1
AC50 [2]: 2.66 µM (active)
AC50 [3]: 44.3 µM (active)
AC50 [6]: 11.1 µM (active)
AC50 [11]: 7.33 µM (active)

COc1ccc(NC(=O)N[C@@H](CCSC)C(=O)O)cc1OC
AC50 [8]: > 30 µM (inactive)

CCn1cc(CN2CCC(C(=O)Nc3ccc(Oc4cccnc4)cc3)CC2)cn1
EC50 [12]: > 150 µM (not active)
EC50 (Streptokinase A): > 150 µM (not active)
EC50 (Streptococcus): > 150 µM (not active)
AC50 [10]: 37.3 µM (active)

O=C(CN1CCN(c2ccccn2)CC1)Nc1cccc(S(=O)(=O)N2CCCC2)c1
EC50 (Mu-type opioid receptor): 92.5 µM (inactive)
EC50 [9]: 9.85 µM (active)

Reference: ChEMBL document CHEMBL1201862, “PubChem BioAssay data set” (2004)
